{"source": "patent US20230277491A1", "about": "“PHARMACEUTICAL COMBINATION COMPRISING GLYCOLIC ACID AND L-ALANINE” (priority 2020, published 2023)", "key": {"[1]": {"test_system": "DJ-1 RNAi depleted HeLa cells", "conditions": "DJ-1 RNAi depleted HeLa cells or paraquat challenge; cited from earlier work"}, "[2]": {"test_system": "HeLa cells treated with siRNA against PARK-7/DJ-1", "assay": "Calcium imaging on HeLa cells during mitosis after PARK-7/DJ-1 down-regulation", "type": "cell-based", "conditions": "PARK-7/DJ-1 down-regulated HeLa cells, 5 mM, FIG. 17", "method": "HeLa cells were loaded with Fluo-4 AM, a dye used to measure calcium concentration in living cells, as described by the manufacturer and recorded for 4 hours. Graphics show the variations in intracellular calcium concentration during mitosis in WT and cells treated with siRNA against PARK-7/DJ-1 to down-regulate this gene.\nHeLa-Kyoto cells stably expressing histone H2B-mCherry and mouse DJ-1 were used. Cells were maintained in DMEM supplemented with 10% fetal bovine serum (FBS), 2 mM GlutaMAX, 100 unit/ml penicillin, 100 μg/ml streptomycin. For esiRNA treatment, cells were plated at a density of 15.000 cells/well in an ibidi 8 well chamber (Cat. no 80826, ibidi, Germany, EU), transfected with different esiRNAs (RLUC as empty vector, hPARK-7 and hKIF11 as positive control) (all esiRNAs were obtained from Eupheria, Germany, EU), and left for 72 hours before performing calcium imaging. esiRNA transfection was performed as follows. esiRNA was diluted in distilled water to a concentration of 20 ng/μl. For each well, two solutions were made: 1. […]\nWe observed that the Fluo-4 AM dye started to leak out of the cells into the medium after 1.5 hours of imaging. […] Images were analyzed using FIJI Image Analysis Freeware (https://fiji.sc). MFI of the Fluo-4 AM signal within the cell was determined using manually selected ROIs covering the whole cell area for each time-point. […]"}, "[3]": {"conditions": "male Wistar rats; cited from earlier work"}, "[4]": {"test_system": "dopaminergic neurons", "assay": "Survival of dopaminergic neurons with paraquat 25 μM challenge (Example 1, FIG. 1)", "type": "cell-based, mouse", "method": "Dopaminergic neurons were isolated and plated at a concentration of 1.000.000 cells/ml (100 μl/well) in a 96 well plate and cultured in medium with one or more of the various factors indicated, as described in the examples below. The survival of dopaminergic neurons in the presence and absence of various agents of the invention, either with or without paraquat challenge, is shown by the number of TH positive neurons normalized to the control treatment.\nDopaminergic neurons were isolated and plated at a concentration of 1.000.000 cells/ml (100 μl/well) in a 96 well plate. After 3-4 hours incubation at 37° C., 20 μl of medium was removed from each well. (VF=80 μl). Changes in medium and start point of the treatment were done in the following day in vitro (DIV). The following protocol was employed in order to assess the survival of dopaminergic neurons in the presence and absence of various agents of the invention combination, either with or without paraquat challenge. • DIV.1: Change half of medium N2 (40 μl) with fresh medium N2. • DIV.3: Change half of the medium and start with medium (control) or with medium A containing LA (different concentrations) and/or GA (normally 5 mM or 10 mM). Medium A is N2 medium but without FBS and N2-Supplement. • DIV.5: Second round of control or treatment with LA and/or GA. Half of the medium (40 μl) was replaced by fresh medium A with the different agents. • DIV.7: Paraquat 25 μM treatment starts with or without GA and L-alanine. Half of the medium (40 μl) was replaced by fresh medium A with the different treatment combinations or without (control). • DIV.9: Second day of treatment with Paraquat (PQ) 25 μM in addition to the other substances (LA and GA). • DIV.10: Fixation 2% of PFA during 20 min at 37° C. or overnight at 4° C.\nPrimary mesencephalic neuronal cell cultures were prepared as previously described. Briefly, E14.5 embryos were obtained from C57JBL6 pregnant mice after cervical dislocation. Brain mesencephali were dissected under the microscope and digested with Trypsin-EDTA 0.12% (Life Technologies, USA) for 7 min. The trypsin reaction was then stopped by adding basic medium (BM), containing Neurobasal A medium (Gibco, USA), 1 mg/mL Pen/Strep, 10% FCS, and […] L-Glutamine, and cells were mechanically dissociated using a fire-polished Pasteur pipette. Medium was fully replaced after 5 min, centrifugation at 1200 rpm, aspiring the supernatant and adding 8 mL of fresh BM to the pellet. Concentration of cells in the medium was estimated using a Neubauer chamber and a 100 μL of medium containing 10^6 cells/mL plated per well in a 96-well plate (Greiner Sensoplate, Germany, EU). Then a 20 μL of medium was removed from the well and 24 h later, ⅓ of the media was replaced with fresh BM. […]"}}}
{"compound": "O=C(O)CO", "note": "[GA, 2-hydroxyethanoic acid]", "values": [{"measurement": "mitochondrial potential", "setting": "[1]", "value": "maintain or rescue mitochondrial potential"}, {"measurement": "calcium influx during mitosis", "setting": "[2]", "value": "able to rescue this phenotype"}, {"measurement": "kidney findings after administration", "setting": "[3]", "value": "formation of hyperoxaluria and calcium oxalate precipitates"}, {"measurement": "survival of dopaminergic neurons (rescue)", "setting": "[4]; 5 mM GA with PQ 25 μM", "value": "rescue over PQ treatment alone"}, {"measurement": "survival of dopaminergic neurons (rescue)", "setting": "[4]; 10 mM GA with PQ 25 μM", "value": "rescued completely"}]}
